Tests used:
[1] = system: IL-17A-induced G-CSF production in human normal keratinocytes (NHK); experiment: NHK Assay: IL-17A-induced G-CSF production in human normal keratinocytes; format: cell-based; details: IL-17A 5 ng/mL, 24 h, 5% FBS, simple average if tested more than once
Method: IL-17A acts directly on keratinocytes through binding to dimeric receptor IL-17RA/RC and drives the production of a number of inflammatory mediators known to be elevated in psoriasis lesional tissue. IL-17A small molecule inhibitors that block the IL-17A to interact with IL-17R would inhibit the IL-17A signaling in its targeted cells such as keratinocytes. The compound functional activity is evaluated for its impact on IL-17A-induced G-CSF production in human normal keratinocytes (NHK).
Adult normal human keratinocytes are cultured in keratinocyte growth medium (Lonza) in a flask till reaching ˜ 90% confluence, then cells are transferred to a 384-well plate at density of 3000-4000 cell/well. Recombinant human IL-17A (Gibco PHC9174) is pre-incubated with titrated compound or DMSO for 1 h at rt then added to the cell culture plate. The final concentration of IL-17A is 5 ng/mL and DMSO is 0.2%, in the culture containing 5% FBS. Cells are cultured/treated for 24 h at 37° C. Supernatants are collected and G-CSF production is measured through HTRF technology using Human G-CSF Kit (CisBio). G-CSF concentration was extrapolated from the standard curve and IC50 is determined using GraphPad Prism. Cell viability is also evaluated using CellTiter-Glo kit (Promega) and effect of compound on cell viability is compared to DMSO control.

[2] = target: IL-17A(FLAG-Tagged): IL-17RA(His-Tagged) (Homo sapiens, UniProt Q16552, K93Q); experiment: IL-17A(FLAG-Tagged): IL-17RA(His-Tagged) Binding Disruption Eu-HTRF Assay; details: disruption of IL-17A/IL-17RA binding; simple average if tested more than once
Source text: IL-17A(FLAG-Tagged): IL-17RA(His-Tagged) Binding Disruption Eu-HTRF Assay
An antibody directed against the FLAG tag of IL-17A (SEQ ID NO: 1) is labeled with the HTRF donor chromophore (Europium-cryptate). IL-17A is present as a dimer that is “locked into” this quaternary structure due to the formation of loop-spanning […] disulfide bridges. The construct of IL-17RA used in the assay excludes the […] portion of the receptor and is fused to a C-terminal 10×His tag (SEQ ID NO:2). An antibody directed against the His tag of the IL-17RA chimera is labeled with the HTRF acceptor chromophore (“D2”). The fluorescence-resonance energy transfer (FRET) depends on the vicinity of the donor chromophore to the acceptor, and interruption of the binding between the IL-17A and IL-17RA causes the reduction/loss of FRET. Therefore, this assay allows to evaluate the compound effect on the binding IL-17A and IL-17RA by monitoring the fluorescence intensity of donor vs acceptor. The assay is run as described below.
40 nL of 2-fold serial diluted compound solution for total 22 dilution points is added into each well of a 1536-well, white, low-volume, non-binding plate (Greiner #782904), then 2 μL of FLAG tagged IL-17A at 2× final concentration (2.5 nM) in solution of PBS+0.01% Triton-X100 is added to each well. The assay plate is briefly centrifuged then incubated for 1 h at rt. A mixed solution is prepared containing 2×5 nM 10HIS×IL-17RA, 2×2.5 nM Eu-anti-FLAG (CISBIO), 2×5 nM D2-anti-HIS (CISBIO) in PBS+0.01% Triton-X100+200 mM Potassium Fluoride (Sigma 60238) and 2 μL of mix is added to each well of the assay plate. The plate is briefly centrifuged then incubated for 2 h at rt. The HTRF intensities at the wavelength of donor (620 nm) and acceptor (665 nm) are measured using BMG Pherastar. The ratio between intensities at two wavelengths is calculated and plotted against the compound concentration and the data is fitted to a one-site competition model to yield IC50 of the compound.

UniProt Q16552, sequence (Q16552 with tags, fused parts or gaps K93Q): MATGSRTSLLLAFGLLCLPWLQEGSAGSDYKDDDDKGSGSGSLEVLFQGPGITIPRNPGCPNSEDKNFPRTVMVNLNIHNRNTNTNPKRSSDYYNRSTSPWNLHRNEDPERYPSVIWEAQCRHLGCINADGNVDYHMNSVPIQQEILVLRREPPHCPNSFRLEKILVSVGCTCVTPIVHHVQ

Structure (SMILES) | IC50 [1] [nM] | IC50 [2] [nM] | IC50 ([1]; Homo sapiens, Keratinocyte) [nM]
O=C(CCC(F)(F)F)NC(c1ccn2cc([C@@H](NC(=O)c3cnnn3CCC(F)(F)F)C3CCC(F)(F)CC3)nc2n1)C1CC1 (single isomer, unassigned) [Example 1, N—((S)-(7-((R*)-Cyclopropyl(4,4,4-trifluorobutanamido)methyl)imidazo[1,2-a]pyrimidin-2-yl)(4,4-difluorocyclohexyl)methyl)-1-(3,3,3-trifluoropropyl)-1H-1,2,3-triazole-5-carboxamide] | 390 | 290 | 
CC(CC(=O)N[C@@H](c1ccn2cc([C@@H](NC(=O)c3ncnn3CC3CC3)C3CCC(F)(F)CC3)nc2n1)C1CC1)C(F)(F)F (single isomer, unassigned) [Example 19, N—((S)-(7-((R)-Cyclopropyl((S*)-4,4,4-trifluoro-3-methylbutanamido)methyl)imidazo[1,2-a]pyrimidin-2-yl)(4,4-difluorocyclohexyl)methyl)-1-(cyclopropylmethyl)-1H-1,2,4-triazole-5-carboxamide] | 1200 | 260 | 
CC(C)n1nccc1C(=O)N[C@H](c1cn2ccc(C(NC(=O)CCC(F)(F)F)C3CC3)nc2n1)C1CCC(F)(F)CC1 (single isomer, unassigned) [Example 47, N—((S)-(7-((R*)-Cyclopropyl(4,4,4-trifluorobutanamido)methyl)imidazo[1,2-a]pyrimidin-2-yl)(4,4-difluorocyclohexyl)methyl)-1-isopropyl-1H-pyrazole-5-carboxamide] | 120 | 410 | 
CC(CC(=O)N[C@H](c1ccn2cc([C@@H](NC(=O)c3ccnc(CC(F)(F)F)c3)C3CCC(F)(F)CC3)nc2n1)C1CC1)C(F)(F)F (single isomer, unassigned) [Example 4, N—((S)-(7-((S)-Cyclopropyl((S*)-4,4,4-trifluoro-3-methylbutanamido)methyl)imidazo[1,2-a]pyrimidin-2-yl)(4,4-difluorocyclohexyl)methyl)-2-(2,2,2-trifluoroethyl)isonicotinamide] | 1200 | 1800 | 
O=C(CCC(F)(F)F)N[C@H](c1ccn2cc([C@@H](NC(=O)c3conc3C3CC3)C3CCC(F)(F)CC3)nc2n1)C1CC1 [Example 37, 3-Cyclopropyl-N—((S)-(7-((S)-cyclopropyl(4,4,4-trifluorobutanamido)methyl)imidazo[1,2-a]pyrimidin-2-yl)(4,4-difluorocyclohexyl)methyl)isoxazole-4-carboxamide] |  | 1400 | > 20000
CC(CC(=O)N[C@H](c1ccn2cc([C@@H](NC(=O)c3conc3CCC(F)(F)F)C3CCC(F)(F)CC3)nc2n1)C1CC1)C(F)(F)F (single isomer, unassigned) [Example 7, N—((S)-(7-((S)-Cyclopropyl((S*)-4,4,4-trifluoro-3-methylbutanamido)methyl)imidazo[1,2-a]pyrimidin-2-yl)(4,4-difluorocyclohexyl)methyl)-3-(3,3,3-trifluoropropyl)isoxazole-4-carboxamide] | 880 | 520 | 
O=C(CCC(F)(F)F)N[C@@H](c1ccn2cc([C@@H](NC(=O)c3ccnc(CC(F)(F)F)c3)C3CCC(F)(F)CC3)nc2n1)C1CC1 [Example 48, N—((S)-(7-((R)-Cyclopropyl(4,4,4-trifluorobutanamido)methyl)imidazo[1,2-a]pyrimidin-2-yl)(4,4-difluorocyclohexyl)methyl)-2-(2,2,2-trifluoroethyl)isonicotinamide] |  | 160 | 170
CC(CC(=O)N[C@H](c1ccn2cc([C@@H](NC(=O)c3conc3C3CC3)C3CCC(F)(F)CC3)nc2n1)C1CC1)C(F)(F)F (single isomer, unassigned) [Example 10, 3-Cyclopropyl-N—((S)-(7-((S)-cyclopropyl((R*)-4,4,4-trifluoro-3-methylbutanamido)methyl)imidazo[1,2-a]pyrimidin-2-yl)(4,4-difluorocyclohexyl)methyl)isoxazole-4-carboxamide] | 5800 | 4100 | 
Cn1nccc1C(=O)N[C@H](c1cn2ccc(C(NC(=O)CCC(F)(F)F)C3CC3)nc2n1)C1CCC(F)(F)CC1 (single isomer, unassigned) [Example 45, N—((S)-(7-((R*)-Cyclopropyl(4,4,4-trifluorobutanamido)methyl)imidazo[1,2-a]pyrimidin-2-yl)(4,4-difluorocyclohexyl)methyl)-1-methyl-1H-pyrazole-5-carboxamide] | 2100 | 2900 | 
O=C(CC1CC1(F)F)N[C@@H](c1ccn2cc([C@@H](NC(=O)c3conc3C(F)(F)F)C3CCC(F)(F)CC3)nc2n1)C1CC1 (single isomer, unassigned) [Example 57, N—((S)-(7-((R)-Cyclopropyl(2-((S*)-2,2-difluorocyclopropyl)acetamido)methyl)imidazo[1,2-a]pyrimidin-2-yl)(4,4-difluorocyclohexyl)methyl)-3-(trifluoromethyl)isoxazole-4-carboxamide] | 930 | 220 | 
O=C(CCC(F)(F)F)NC(c1ccn2cc([C@@H](NC(=O)c3cnnn3CCC(F)(F)F)C3CCC(F)(F)CC3)nc2n1)C1CC1 (single isomer, unassigned) [Example 2, N—((S)-(7-((S*)-Cyclopropyl(4,4,4-trifluorobutanamido)methyl)imidazo[1,2-a]pyrimidin-2-yl)(4,4-difluorocyclohexyl)methyl)-1-(3,3,3-trifluoropropyl)-1H-1,2,3-triazole-5-carboxamide] | 6200 | 3700 | 
CC(C)n1ncnc1C(=O)N[C@H](c1cn2ccc([C@@H](NC(=O)CC3CC(F)(F)C3)C3CC3)nc2n1)C1CCC(F)(F)CC1 [Example 14, N—((S)-(7-((S)-Cyclopropyl(2-(3,3-difluorocyclobutyl)acetamido)methyl)imidazo[1,2-a]pyrimidin-2-yl)(4,4-difluorocyclohexyl)methyl)-1-isopropyl-1H-1,2,4-triazole-5-carboxamide] |  | 17000 | > 20000
O=C(CCC(F)(F)F)N[C@@H](c1ccn2cc([C@@H](NC(=O)c3cnn(CC4CC4)n3)C3CCC(F)(F)CC3)nc2n1)C1CC1 [Example 34, N—((S)-(7-((R)-Cyclopropyl(4,4,4-trifluorobutanamido)methyl)imidazo[1,2-a]pyrimidin-2-yl)(4,4-difluorocyclohexyl)methyl)-2-(cyclopropylmethyl)-2H-1,2,3-triazole-4-carboxamide] |  | 240 | 580
CC(C)n1nccc1C(=O)N[C@H](c1nc2nc([C@H](NC(=O)CCC(F)(F)F)C3CC3)ccn2c1F)C1CCC(F)(F)CC1 [Example 35, N—((S)-(7-((R)-Cyclopropyl(4,4,4-trifluorobutanamido)methyl)-3-fluoroimidazo[1,2-a]pyrimidin-2-yl)(4,4-difluorocyclohexyl)methyl)-1-isopropyl-1H-pyrazole-5-carboxamide] |  | 810 | 950
CC(C)n1ncnc1C(=O)N[C@H](c1cn2ccc([C@H](NC(=O)CC(C)C(F)(F)F)C3CC3)nc2n1)C1CCC(F)(F)CC1 (single isomer, unassigned) [Example 18, N—((S)-(7-((R)-Cyclopropyl((R*)-4,4,4-trifluoro-3-methylbutanamido)methyl)imidazo[1,2-a]pyrimidin-2-yl)(4,4-difluorocyclohexyl)methyl)-1-isopropyl-1H-1,2,4-triazole-5-carboxamide] | 2000 | 580 | 

— patent US12559496B2, “Imidazopyrimidines as modulators of IL-17” (Janssen Pharmaceutica NV, priority 2020, dated 2026)
